Experimental data reported in US20250081967A1, “PESTICIDALLY ACTIVE HETEROCYCLIC DERIVATIVES WITH SULFOXIMINE CONTAINING SUBSTITUENTS” (SYNGENTA CROP PROTECTION AG, priority 2021, published 2025).

Legend:
Assay type in all cases: in vivo
[1] = tested on: Spodoptera littoralis; test: Activity against Spodoptera littoralis (Egyptian cotton leaf worm), cotton leaf discs; conditions: foliar, 72 h, application rate 200 ppm, L1 larvae, 3 days after infestation, read-out: control (mortality, anti-feeding effect or growth inhibition)
Procedure: Example B1: Activity Against Spodoptera littoralis (Egyptian Cotton Leaf Worm)
Cotton leaf discs were placed onto agar in 24-well microtiter plates and sprayed with aqueous test solutions prepared from 10′000 ppm DMSO stock solutions. After drying the leaf discs were infested with five L1 larvae. The samples were assessed for mortality, anti-feeding effect, and growth inhibition in comparison to untreated samples 3 days after infestation. Control of Spodoptera littoralis by a test sample is given when at least one of the categories mortality, anti-feedant effect, and growth inhibition is higher than the untreated sample.

[2] = tested on: Diabrotica balteata; test: Activity against Diabrotica balteata (corn root worm), maize sprouts; conditions: for percent effect (mortality or growth inhibition) at 200 ppm: 96 h, application rate 200 ppm, L2 larvae, 4 days after infestation, read-out: effect in at least one of the two categories (mortality or growth inhibition)
Procedure: Example B3: Activity Against Diabrotica Balteata (Corn Root Worm)
Maize sprouts placed onto an agar layer in 24-well microtiter plates were treated with aqueous test solutions prepared from 10′000 ppm DMSO stock solutions by spraying. After drying, the plates were infested with L2 larvae (6 to 10 per well). The samples were assessed for mortality and growth inhibition in comparison to untreated samples 4 days after infestation.

[3] = tested on: Myzus persicae; test: Activity against Myzus persicae (green peach aphid), feeding/contact activity, sunflower leaf discs; conditions: Myzus persicae, foliar; for mortality at 200 ppm: 144 h, application rate 200 ppm, feeding/contact, 6 days after infestation
Procedure: Example B4: Activity Against Myzus persicae (Green Peach Aphid) Feeding/Contact Activity
Sunflower leaf discs were placed on agar in a 24-well microtiter plate and sprayed with aqueous test solutions prepared from 10′000 ppm DMSO stock solutions. After drying, the leaf discs were infested with an aphid population of mixed ages. The samples were assessed for mortality 6 days after infestation.

[4] = tested on: Myzus persicae; test: Activity against Myzus persicae (green peach aphid), systemic activity, pea seedlings; conditions: for mortality at 24 ppm: Myzus persicae, 144 h, test rate 24 ppm, systemic, 6 days after placing seedlings in test solutions
Procedure: Example B5: Activity Against Myzus persicae (Green Peach Aphid) Systemic Activity
Roots of pea seedlings infested with an aphid population of mixed ages were placed directly in the aqueous test solutions prepared from 10′000 DMSO stock solutions. The samples were assessed for mortality 6 days after placing seedlings in test solutions.

[5] = tested on: Bemisia tabaci; test: Activity against Bemisia tabaci (cotton white fly), cotton leaf discs; conditions: foliar; for mortality at 200 ppm: 144 h, application rate 200 ppm, adult white flies, 6 days after incubation
Procedure: Example B6: Activity Against Bemisia tabaci (Cotton White Fly)
Cotton leaf discs were placed on agar in 24-well microtiter plates and sprayed with aqueous test solutions prepared from 10′000 ppm DMSO stock solutions. After drying the leaf discs were infested with adult white flies. The samples were checked for mortality 6 days after incubation.

[6] = tested on: Euschistus heros; test: Activity against Euschistus heros (neotropical brown stink bug), soybean leaf; conditions: 120 h, application rate 200 ppm, N-2 nymphs, 5 days after infestation, read-out: effect in at least one of the two categories (mortality or growth inhibition)
Procedure: Example B7: Activity Against Euschistus heros (Neotropical Brown Stink Bug)
Soybean leaf on agar in 24-well microtiter plates were sprayed with aqueous test solutions prepared from 10′000 ppm DMSO stock solutions. After drying the leaf were infested with N-2 nymphs. The samples were assessed for mortality and growth inhibition in comparison to untreated samples 5 days after infestation.

[7] = tested on: Plutella xylostella; test: Activity against Plutella xylostella (diamond back moth), artificial diet, eggs; conditions: 192 h, application rate 200 ppm, 8 days after infestation, read-out: effect in at least one of the two categories (mortality or growth inhibition)
Procedure: Example B9: Activity Against Plutella xylostella (Diamond Back Moth)
24-well microtiter plates with artificial diet were treated with aqueous test solutions prepared from 10′000 ppm DMSO stock solutions by pipetting. After drying, Plutella eggs were pipetted through a plastic stencil onto a gel blotting paper and the plate was closed with it. The samples were assessed for mortality and growth inhibition in comparison to untreated samples 8 days after infestation.

## CCS(=N)(=O)c1cc(OC(C)(C)C#N)cnc1-c1cn2cnc(SC(F)(F)F)cc2n1 (single isomer, unassigned) [Compound P7-A, 2-[[5-(ethylsulfonimidoyl)-6-[7-(trifluoromethylsulfanyl)imidazo[1,2-c]pyrimidin-2-yl]-3-pyridyl]oxy]-2-methyl-propanenitrile]
[1]
  percent control (mortality, anti-feedant effect or growth inhibition) at 200 ppm: ≥ 80%
[2]
  percent effect (mortality or growth inhibition) at 200 ppm: ≥ 80%
[3]
  mortality at 200 ppm: ≥ 80%
[4]
  mortality at 24 ppm: ≥ 80%
[5]
  mortality at 200 ppm: ≥ 80%
[5]; concentration 50 ppm
  mortality at 50 ppm: 80%
[6]
  percent effect (mortality or growth inhibition) at 200 ppm: ≥ 80%

## CCS(=N)(=O)c1cc(OC(C)(C)C#N)c(C)nc1-c1nc2cc(C(F)(F)F)ncc2n1C (single isomer, unassigned) [Compound P17-B, 2-[[5-(ethylsulfonimidoyl)-2-methyl-6-[3-methyl-6-(trifluoromethyl)imidazo[4,5-c]pyridin-2-yl]-3-pyridyl]oxy]-2-methyl-propanenitrile]
[1]
  percent control (mortality, anti-feedant effect or growth inhibition) at 200 ppm: ≥ 80%
[6]
  percent effect (mortality or growth inhibition) at 200 ppm: ≥ 80%

## CCS(=N)(=O)c1cc(C2(C#N)CC2)cnc1-c1nc2cc(C(F)(F)F)n(OC)c(=O)c2n1C (single isomer, unassigned) [Compound P8-A, 1-[5-(ethylsulfonimidoyl)-6-[5-methoxy-3-methyl-4-oxo-6-(trifluoromethyl)imidazo[4,5-c]pyridin-2-yl]-3-pyridyl]cyclopropanecarbonitrile]
[1]
  percent control (mortality, anti-feedant effect or growth inhibition) at 200 ppm: ≥ 80%
[2]
  percent effect (mortality or growth inhibition) at 200 ppm: ≥ 80%
[3]
  mortality at 200 ppm: ≥ 80%
[4]
  mortality at 24 ppm: ≥ 80%
[5]
  mortality at 200 ppm: ≥ 80%
[6]
  percent effect (mortality or growth inhibition) at 200 ppm: ≥ 80%

## CCn1c(C(F)(F)F)cc2nc(-c3ncc(C4(C#N)CC4)cc3S(=N)(=O)CC)n(C)c2c1=O (single isomer, unassigned) [Compound P14-A, 1-[6-[5-ethyl-3-methyl-4-oxo-6-(trifluoromethyl)imidazo[4,5-c]pyridin-2-yl]-5-(ethylsulfonimidoyl)-3-pyridyl]cyclopropanecarbonitrile]
[1]
  percent control (mortality, anti-feedant effect or growth inhibition) at 200 ppm: ≥ 80%
[2]
  percent effect (mortality or growth inhibition) at 200 ppm: ≥ 80%
[2]; concentration 50 ppm
  Mortality (%): 80%
[3]
  mortality at 200 ppm: ≥ 80%
[4]
  mortality at 24 ppm: ≥ 80%
[5]
  mortality at 200 ppm: ≥ 80%
[6]
  percent effect (mortality or growth inhibition) at 200 ppm: ≥ 80%
[7]
  percent effect (mortality or growth inhibition) at 200 ppm: ≥ 80%

## CCS(=N)(=O)c1cc(OC(C)(C)C#N)cnc1-c1nc2cc(C(F)(F)F)n(C3CC3)c(=O)c2n1C (single isomer, unassigned) [Compound P1-A, 2-[[6-[5-cyclopropyl-3-methyl-4-oxo-6-(trifluoromethyl)imidazo[4,5-c]pyridin-2-yl]-5-(ethylsulfonimidoyl)-3-pyridyl]oxy]-2-methyl-propanenitrile]
[1]
  percent control (mortality, anti-feedant effect or growth inhibition) at 200 ppm: ≥ 80%
[2]
  percent effect (mortality or growth inhibition) at 200 ppm: ≥ 80%
[3]
  mortality at 200 ppm: ≥ 80%
[3]; Myzus persicae (contact), concentration 50 ppm
  mortality at 50 ppm: 100%
[4]
  mortality at 24 ppm: ≥ 80%
[5]
  mortality at 200 ppm: ≥ 80%
[6]
  percent effect (mortality or growth inhibition) at 200 ppm: ≥ 80%

## CCS(=N)(=O)c1cc(OC(C)(C)C#N)c(C)nc1-c1nc2cc(C(F)(F)F)cnc2n1C (single isomer, unassigned) [Compound P5-B, 2-[[5-(ethylsulfonimidoyl)-2-methyl-6-[3-methyl-6-(trifluoromethyl)imidazo[4,5-b]pyridin-2-yl]-3-pyridyl]oxy]-2-methyl-propanenitrile]
[2]; concentration 3.125 ppm
  Mortality (%): 100%
[4]; Myzus persicae (systemic), concentration 24 ppm
  Mortality (%): 100%
[6]
  percent effect (mortality or growth inhibition) at 200 ppm: ≥ 80%
[7]
  percent effect (mortality or growth inhibition) at 200 ppm: ≥ 80%
